For orientation: IC50 means the point on the concentration scale where inhibition reaches its midpoint.

The values below come from ChEMBL document CHEMBL6087389, “Hydrazone-Functionalized trans-A2B-Corroles: Effective Synergy in Photodynamic Therapy of Lung Cancer” (J Med Chem, 2024).

Series [1] in a line: Induction of singlet oxygen generation in THF assessed as singlet oxygen quantum yield by comparative photoluminescence method. The class given is functional.
Series [2] can be described thus: Fluorescence property of the compound in THF assessed as fluorescence quantum yield by photoluminescence quantum yield spectrometer. The class given is physicochemical.
Series [3] is described as follows: Fluorescence property of the compound in DMSO assessed as fluorescence quantum yield by photoluminescence quantum yield spectrometer. The class given is physicochemical.
In series [4] the test system is A549. Nature of the series: Photocytotoxicity in human A549 cells assessed as cell viability at 10 uM measured after 24 hrs by MTT assay relative to control. The class given is functional. Particulars: read-out: Activity. For orientation: Tetrazolium assays rely on reduction of a dye to a coloured formazan, in cell work by metabolically active cells.
Series [5] deals with A549. Briefly: Dark toxicity against human A549 cells assessed as reduction in metabolic activity at 10 uM incubated for 4 hrs by MTT assay. The class given is cell-based. Also noted: scale not given: the % may be the effect or the level left. As to conditions: a549, 4 h.
A short description of series [6]: Phototoxicity against human NCI-H1299 cells assessed as reduction in cell viability preincubated for 24 hrs followed by 7.5 to 10 mW/cm^-2 red light irradiation and measured after 24 hrs by MTT assay. The class given is functional, cell-based. As to conditions: NCI-H1299, light or radiation study.
Series [7] in a line: Phototoxicity against human A549 cells assessed as reduction in cell viability preincubated for 24 hrs followed by 7.5 to 10 mW/cm^-2 red light irradiation and measured after 24 hrs by MTT assay. The class given is functional, cell-based. As to conditions: A549, light or radiation study.
For series [8], the system named is NCI-H1299. Nature of the series: Dark toxicity against human NCI-H1299 cells assessed as reduction in metabolic activity at 10 uM incubated for 4 hrs by MTT assay. Particulars: nci-h1299, 4 h. Also noted: scale not given: the % may be the effect or the level left. The class given is cell-based.
Series [9] relates to A549. Briefly: Dark toxicity against human A549 cells assessed as reduction in metabolic activity at <1 uM incubated for 4 hrs by MTT assay. Particulars: a549, 4 h. The class given is cell-based.
Series [10] concerns NCI-H1299. Nature of the series: Dark toxicity against human NCI-H1299 cells assessed as reduction in metabolic activity at <1 uM incubated for 4 hrs by MTT assay. The class given is cell-based. As to conditions: nci-h1299, 4 h.
The nature of series [11]: Fluorescence property of the compound in toluene assessed as fluorescence quantum yield by photoluminescence quantum yield spectrometer. The class given is physicochemical.
For series [12], the system named is A549. Briefly: Dark toxicity against human A549 cells assessed as reduction in metabolic activity at 5 uM incubated for 4 hrs by MTT assay relative to control. The class given is cell-based. On the set-up: scale not given: the % may be the effect or the level left. As to conditions: a549, 4 h.

Take `C1=Cc2nc1c(-c1ccccc1)c1ccc([nH]1)c(-c1ccccc1)c1ccc([nH]1)c1ccc([nH]1)c2-c1ccccc1`: the Activity in series [1] was determined as 0.22; in [2], 0.12; in [3] it was 0.22. Besides, the viability at 10 µM in the series on A549 [4] came to 93%.

For `C/C(=N\NC(=O)c1ccccc1)c1c2nc(c(-c3ccccc3)c3ccc([nH]3)c3ccc([nH]3)c(-c3ccccc3)c3ccc1[nH]3)C=C2`, the Activity in [1] is 0.11; in series [2], 0.111; in the series on A549 [5], “Non-toxic”; with NCI-H1299 [8], “Non-toxic”; in series [3] it was 0.211; with A549 [9] it was “Non-toxic”. Moreover, the Activity entry with NCI-H1299 [10] is recorded as “Non-toxic”. Further, the IC50 in [6] came out at 164 nM; in [7], 803 nM.

For the molecule `C/C(=N/NC(=O)OC(C)(C)C)c1c2nc(c(-c3cccc(O)c3)c3ccc([nH]3)c3ccc([nH]3)c(-c3cccc(O)c3)c3ccc1[nH]3)C=C2`, the Activity was 0.26 in series [1]; 0.133 in series [2]; 0.283 in series [3]; “Non-toxic” in the series on A549 [9]; “Non-toxic” with NCI-H1299 [10]. Further, the IC50 in [6] was 67.5 nM; in series [7], 140 nM.

As for `C/C(=N/NC(=O)OC(C)(C)C)c1c2nc(c(-c3ccc([N+](=O)[O-])cc3)c3ccc([nH]3)c3ccc([nH]3)c(-c3ccc([N+](=O)[O-])cc3)c3ccc1[nH]3)C=C2`, the Activity was 0.22 in [1]; 49.14% with A549 [5]; 0.195 in series [11]; 53.41% in the series on NCI-H1299 [8]; “Non-toxic” in the series on A549 [9]; “Non-toxic” in the series with NCI-H1299 [10]. For the same molecule, the IC50 in series [6] was found to be 310 nM; in series [7] it was 748 nM.

For `CC(C)(C)OC(=O)N/N=C(\c1ccccc1)c1c2nc(c(-c3ccc([N+](=O)[O-])cc3)c3ccc([nH]3)c3ccc([nH]3)c(-c3ccc([N+](=O)[O-])cc3)c3ccc1[nH]3)C=C2`, the Activity in series [1] is 0.31; in the series on A549 [5], 48.37%; in [11], 0.197; in the series on NCI-H1299 [8], 51.15%; in the series with A549 [9], “Non-toxic”; in the series on NCI-H1299 [10] it was “Non-toxic”. The IC50 was 2360 nM in [6] and 2110 nM in series [7].

As to `CC(C)(C)OC(=O)N/N=C(\c1ccccc1)c1c2nc(c(-c3ccccc3)c3ccc([nH]3)c3ccc([nH]3)c(-c3ccccc3)c3ccc1[nH]3)C=C2`, the Activity was 0.46 in [1]; 0.159 in series [2]; “Non-toxic” in the series on NCI-H1299 [8]; 0.298 in series [3]; “Non-toxic” in the series on A549 [9]; “Non-toxic” with NCI-H1299 [10]. The IC50 in [6] worked out at 538 nM; in series [7], 948 nM.

As to `Oc1cccc(-c2c3nc(c(-c4cccc(O)c4)c4ccc([nH]4)c(-c4cccc(O)c4)c4nc(c(-c5cccc(O)c5)c5ccc2[nH]5)CC4)C=C3)c1` [TEMOPORFIN], in series [7], the IC50 stood at 84.1 nM.

Regarding `C/C(=N/NC(=O)OC(C)(C)C)c1c2nc(c(-c3ccc(O)cc3)c3ccc([nH]3)c3ccc([nH]3)c(-c3ccc(O)cc3)c3ccc1[nH]3)C=C2`, the Activity is 0.18 in series [1]; 0.114 in series [2]; 0.249 in series [3]; “Non-toxic” in the series with A549 [9]; “Non-toxic” in the series on NCI-H1299 [10]. Besides, the IC50 is 145 nM in [6] and 413 nM in series [7].

On to `C/C(=N\NS(=O)(=O)c1ccc(C)cc1)c1c2nc(c(-c3ccc(O)cc3)c3ccc([nH]3)c3ccc([nH]3)c(-c3ccc(O)cc3)c3ccc1[nH]3)C=C2`, for which the Activity in [1] was 0.19; in series [2] it was 0.073; in the series with A549 [5] it was 13.93%; in the series with A549 [12], 17.95%; in series [3], 0.212; in the series with A549 [9], “Non-toxic”. Also, the Activity result in the series on NCI-H1299 [10] is on record as “Non-toxic”. The IC50 was 277 nM in series [6] and 892 nM in series [7].

Consider `CC(C)(C)OC(=O)N/N=C(/c1ccccc1)c1c2nc(c(-c3ccc(O)cc3)c3ccc([nH]3)c3ccc([nH]3)c(-c3ccc(O)cc3)c3ccc1[nH]3)C=C2`, for which the Activity is 0.21 in series [1]; 0.118 in series [2]; 0.234 in series [3]; “Non-toxic” in the series with A549 [9]; “Non-toxic” with NCI-H1299 [10]. Besides, the IC50 is 56.1 nM in [6] and 89.3 nM in [7].

As to `C/C(=N\Nc1ccc([N+](=O)[O-])cc1[N+](=O)[O-])c1c2nc(c(-c3ccccc3)c3ccc([nH]3)c3ccc([nH]3)c(-c3ccccc3)c3ccc1[nH]3)C=C2`, the Activity in series [11] is 0.002; in the series on A549 [9], “Non-toxic”; in the series with NCI-H1299 [10], “Non-toxic”.
